The results in this text go back to US12492229B2, “Antimicrobial peptides” (Donald Danforth Plant Science Center, priority 2019, dated 2025).

For test [1], the system named is Botrytis cinerea. Type of test: cell-based. To be noted: Pichia pastoris-expressed peptide.
Test [2] concerns Fusarium graminearum. Type of test: cell-based. To be noted: Pichia pastoris-expressed peptide.
For test [3], the system named is Phytophthora capsici. Type of test: cell-based. Conditions: Pichia pastoris-expressed peptide.
The test system of test [4] is Fusarium oxysporum. Type of test: cell-based.
The test system of test [5] is Alternaria brassicicola. Type of test: cell-based. Conditions: Pichia pastoris-expressed peptide.
Test [6] deals with A. rhizogenes. In words: In vitro antibacterial activity. Type of test: cell-based, Agrobacterium rhizogenes.
Test [7] deals with A. tumefaciens. Briefly: In vitro antibacterial activity. Type of test: cell-based.

What is called IC50 is the concentration that inhibits the measured activity by half. Higher therefore signals weaker potency in that assay. “SbDef1: endogenous Sorghum bicolor defensin antifungal peptide, 49 amino acids, SEQ ID NO: 1; expressed in Pichia pastoris (VHVCTMRNKFFHGPCMSNKNCAASCIQHRIGGGGYCSSRRQICKCTLQC; Sorghum bicolor)”: the IC50 in test [1] lay in the range of 1500 to 2000 nM; in test [2], 2000 to 3000 nM; in test [3], 2000 to 3000 nM; in test [4], 200 to 500 nM; in test [5], 1500 to 2000 nM. The “MLC (minimal lethal concentration)” value in test [1] was 3 µM; in test [2], 6 µM; in test [3], 6 µM; in test [4], 0.75 µM; in test [5] it was 6 µM. In addition, the antibacterial activity entry in test [6] and in test [7] was “does not exhibit any antibacterial activity” each time.
